{"source": "patent US9254273B2", "about": "“Compositions and methods for treating Alzheimer's disease and related disorders and promoting a healthy nervous system” (Icahn School of Medicine at Mount Sinai, priority 2004, dated 2016)", "key": {"γ-secretase [1]": {"tested_on": "γ-secretase", "experiment": "In vitro γ-secretase assay (in vitro model of amyloidosis): CTF-γ from membrane-bound APP, H4-APPswe cells", "type": "biochemical, human", "method": "(§1) For assessment of γ-secretase activity, cell monolayers were rinsed twice with ice-cold PBS on ice, scraped from tissue culture dishes and centrifuged (1,500 rpm, 10 min, 4° C.). Cell pellets were then resuspended (0.5 ml/10 cm dish) in homogenization buffer (10 mM MOPS pH 7.0, 10 mM potassium chloride, 1× complete protease inhibitor (PI) (Roche Molecular Biochemicals, Germany) and homogenized by passing cell suspensions through a 23-gauge needle 10 times. Homogenates were then centrifuged (2,500 rpm, 15 min at 4° C.) to remove unbroken cells and nuclei. The supernatant (membrane and post-nuclear supernatant) was then centrifuged (14,000 rpm, 20 min, 4° C.) and rinsed in homogenization buffer. Membranes were then resuspended (0.5 ml/10 cm dish) in assay buffer (150 mM sodium citrate pH 6.4; 1×PI) and incubated at (2 hr) at 37° C. in 25 μl of incubation buffer per assay sample to allow for generation of the CTF-γ cleavage product; negative control samples were maintained on ice. CTF-γ cleavage products (as well as CTF-α and CTF-β) were resolved electrophoretically in 10-20% Tris-Tricine gels (Bio Rad Laboratories, CA), and identified using an anti APP polyclonal C8 antibody. Immunoreactivities were visualized autoradiographically using a chemiluminescence detection kit (SuperSignal; Pierce Biotechnology, Rockford, Ill.). […]"}, "Tg2576 mice [2]": {"tested_on": "Tg2576 mice", "experiment": "Aβ peptide content (ELISA) in the brain of Tg2576 mice on high-fat diet plus pinitol", "type": "in vivo, mouse", "settings": "12-month old female Tg2576 mice, high-fat diet plus pinitol in drinking water (600 mg/liter), from 4 months of age", "text": "This study assessed A∃ peptide contents in the brain and in the periphery (serum) of 12-month old female Tg2576 mice in response to chronic treatment, initiating at 4 month of age, with a high-fat (HF) diet or HF diet plus pinitol (N=3-4 per group). Gender-age-matched Tg2576 mice maintained on standard rodent laboratory diet (LF diet) served as controls. High-fat diet and standard laboratory diet containing equal % of cholesterol per g/diet were purchased from Research Diet, Inc. (New Brunswick, N.J.) (Ho et al, FASEB J 2004; 18:902-204). Pinitol (Humanetics Corp.) was provided by incorporation into drinking water (600 mg pinitol/liter water), which is available ad libitum. […] For quantitative assessment of A∃ peptides (Xiang et al. Gene Expr. 2002, 10:271-278), frozen pulverized brain tissues were homogenized in 5.0 M guanidine buffer, diluted (1:10) in phosphate-buffered saline containing 0.05% (v/v) Tween-20 and 1 mM Pefabloc protease inhibitors (Roche Biochemicals, Indianapolis, Ind.) and centrifuged for 20 min at 4° C. Total Aβ1-40 or Aβ1-42 was measured by sandwich ELISA (BioSource, Camarillo, Calif.) according to the manufacturer's instructions. Serum specimens were assessed directly using the same ELISA according to the manufacturer's instructions."}, "Tg2576 mice [3]": {"tested_on": "Tg2576 mice", "experiment": "Cognitive function in Tg2576 mice", "type": "in vivo, mouse"}, "NOTCH [4]": {"tested_on": "NOTCH", "experiment": "γ-secretase-mediated cleavage of NOTCH in H4-APPswe cells", "type": "cell-based, human", "settings": "FIG. 8B", "text": "The selectivity of D-pinitol action was further addressed by examining its effect on cleavage of the signaling molecule NOTCH. The “gamma-secretase” complex, consisting of presenilins (PS), nicastrin (NCT), APH-1 and PEN-2, catalyzes the intramembranous proteolysis of truncated Notch derivatives to generate NICD, respectively."}, "NOTCH [5]": {"tested_on": "NOTCH", "experiment": "Cleavage of NOTCH in the neocortex of Tg2576 transgenic mice", "type": "in vivo, mouse", "settings": "compared to insulin-resistant and control Tg2576 mice, data not shown"}, "[6]": {"tested_on": "insulin receptor signal transduction", "experiment": "Insulin receptor signal transduction in the brain of Tg2576 mice", "type": "in vivo, mouse"}, "β-secretase": {"molecular_target": "T1, β-secretase (Homo sapiens, UniProt P56817)", "T1 construct": "endogenous in cells; host or cells: H4-APP751 human glioma cells (homogenate)", "T1 sequence (P56817 46-501)": "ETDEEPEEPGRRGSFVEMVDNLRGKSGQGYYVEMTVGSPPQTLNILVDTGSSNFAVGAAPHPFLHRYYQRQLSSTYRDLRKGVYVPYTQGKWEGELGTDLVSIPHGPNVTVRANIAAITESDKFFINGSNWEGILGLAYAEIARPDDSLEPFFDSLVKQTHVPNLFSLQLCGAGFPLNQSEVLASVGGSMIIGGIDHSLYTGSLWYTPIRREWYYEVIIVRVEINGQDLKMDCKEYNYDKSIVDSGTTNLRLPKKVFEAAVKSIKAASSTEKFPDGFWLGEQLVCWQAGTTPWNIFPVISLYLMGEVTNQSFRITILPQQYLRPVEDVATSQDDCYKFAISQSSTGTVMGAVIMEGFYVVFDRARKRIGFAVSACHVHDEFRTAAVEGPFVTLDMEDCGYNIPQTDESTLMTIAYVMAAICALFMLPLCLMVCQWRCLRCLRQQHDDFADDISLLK", "experiment": "Cell-based β-secretase activity assay (fluorometric kit) in pinitol-treated H4 cells", "settings": "cultured H4 cells, increasing concentrations of pinitol, 24 and 48 hours", "method": "(§2) In this study, cultured human glioma H4-cells with constitutive APP751 expression were treated with increasing concentrations of pinitol, and then cellular ∀- and ∃-secretase activity as well as A∃ peptide contents in the conditioned media were assessed in response to pinitol treatment over time. Growth and maintenance of H4-APP751 cells were as described in Qin et al. (J. Biol. Chem. 2002; 278:50970-50977). Confluent cell cultures were treated with increasing concentration of pinitol. At 24 and 48 hours after pinitol treatment, cells were harvested for secretase activity assays and conditioned media were collected for measurement of A∃ peptide contents. The ∀-secretase (FIG. 7A) and ∃-secretase (FIG. 7B) activities in pinitol-treated cells were measured using commercially available kits (R&D Systems). Harvested cells were homogenized in supplied buffers and homogenate was added to a secretase-specific APP peptide conjugated to the reporter molecules EDANS and DABCYL. […] Cleavage of the peptide by the secretase physically separates the EDANS and DABCYL, allowing the release of a fluorescent signal. The level of ∀-secretase (FIG. 7A) or ∃-secretase (FIG. 7B) enzymatic activity is proportional to the fluorometric reaction in the homogenate. […] A∃ peptides were measured by ELISA as described above. […]"}, "α-secretase": {"tested_on": "α-secretase", "experiment": "Cell-based α-secretase activity assay (fluorometric kit) in pinitol-treated H4 cells", "design": "species or system human", "settings": "cultured H4 cells, increasing concentrations of pinitol, 24 and 48 hours", "method": "as §2"}, "[7]": {"settings": "insulin-resistant and hyperinsulinemic monkeys; cited from earlier work"}, "[8]": {"settings": "cited from earlier work"}, "γ-secretase [9]": {"tested_on": "γ-secretase", "experiment": "Aβ peptide content in conditioned media by ELISA (γ-secretase readout) in pinitol-treated H4 cells", "type": "cell-based, human", "method": "For quantitative assessment of A∃ peptides (Xiang et al. Gene Expr. 2002, 10:271-278), frozen pulverized brain tissues were homogenized in 5.0 M guanidine buffer, diluted (1:10) in phosphate-buffered saline containing 0.05% (v/v) Tween-20 and 1 mM Pefabloc protease inhibitors (Roche Biochemicals, Indianapolis, Ind.) and centrifuged for 20 min at 4° C. Total Aβ1-40 or Aβ1-42 was measured by sandwich ELISA (BioSource, Camarillo, Calif.) according to the manufacturer's instructions. Serum specimens were assessed directly using the same ELISA according to the manufacturer's instructions.\nIn this study, cultured human glioma H4-cells with constitutive APP751 expression were treated with increasing concentrations of pinitol, and then cellular ∀- and ∃-secretase activity as well as A∃ peptide contents in the conditioned media were assessed in response to pinitol treatment over time. Growth and maintenance of H4-APP751 cells were as described in Qin et al. (J. Biol. Chem. 2002; 278:50970-50977). Confluent cell cultures were treated with increasing concentration of pinitol. At 24 and 48 hours after pinitol treatment, cells were harvested for secretase activity assays and conditioned media were collected for measurement of A∃ peptide contents. The ∀-secretase (FIG. 7A) and ∃-secretase (FIG. 7B) activities in pinitol-treated cells were measured using commercially available kits (R&D Systems). Harvested cells were homogenized in supplied buffers and homogenate was added to a secretase-specific APP peptide conjugated to the reporter molecules EDANS and DABCYL. […] Cleavage of the peptide by the secretase physically separates the EDANS and DABCYL, allowing the release of a fluorescent signal. The level of ∀-secretase (FIG. 7A) or ∃-secretase (FIG. 7B) enzymatic activity is proportional to the fluorometric reaction in the homogenate. […] A∃ peptides were measured by ELISA as described above. In FIG. 7, each value represents Mean±SEM; n=4 cultures per assay; * P<0.05 vs. control (no pinitol treatment) group (2-tailed Student's t test)."}, "[10]": {"settings": "history of use, animal and human clinical scientific studies; cited from earlier work"}, "γ-secretase [11]": {"tested_on": "γ-secretase", "experiment": "In vitro γ-secretase assay in extracts obtained from CHO-APPswe cells", "type": "biochemical", "settings": "data not shown", "method": "as §1"}, "[12]": {"experiment": "LDH assay of cell toxicity", "type": "cell-based", "settings": "all concentrations tested, 50-250 μM, not shown"}, "GSK-3": {"tested_on": "GSK-3", "experiment": "GSK-3 activity in the brain of Tg2576 mice", "type": "in vivo, mouse", "settings": "Tg2576 mice treated with D-pinitol"}, "[13]": {"settings": "80 mg/kg/day in drinking water from six months of age, 12-month old Tg2576 mice"}, "[14]": {"settings": "conditioned culture media, ELISA, increasing concentrations of pinitol"}}, "note": "“Also recorded” adds a separate entry of the source. Read-outs that look alike come from different tables or passages of the source."}
{"smiles": "CO[C@H]1[C@H](O)[C@@H](O)[C@@H](O)[C@H](O)[C@@H]1O", "note": "[D-pinitol]", "values": [{"measurement": "formation of the ~7 kDa CTF-γ APP fragment", "setting": "γ-secretase [1]; H4-APPswe cells, membrane-bound APP", "value": "blocked; also recorded: selective reduction"}, {"measurement": "β-amyloidogenesis in the brain", "setting": "Tg2576 mice [2]", "value": "amelioration"}, {"measurement": "β-amyloidogenesis in the brain", "setting": "Tg2576 mice [2]; listed as pinitol", "value": "reduced"}, {"measurement": "cognitive impairment", "setting": "Tg2576 mice [3]; NIDDM-like insulin resistant Tg2576 mice", "value": "beneficially influences"}, {"measurement": "cognitive functions", "setting": "Tg2576 mice [3]; Tg2576 mice, 80 mg/kg body weight per day in drinking water, preliminary studies", "value": "promotes"}, {"measurement": "cleavage of NOTCH", "setting": "NOTCH [4]", "value": "no inhibitory effect"}, {"measurement": "cleavage of NOTCH in the neocortex", "setting": "NOTCH [5]", "value": "no inhibitory effect"}, {"measurement": "PI3K-p85α", "setting": "[6]; [13]", "value": "increased"}, {"measurement": "S473-AKT", "setting": "[6]; [13]", "value": "increased"}, {"measurement": "total IRβ", "setting": "[6]; [13]", "value": "not"}, {"measurement": "Y1162/1163-phosphorylated IRβ", "setting": "[6]; 80 mg/kg/day in drinking water from six months of age, 12-month old Tg2576 mice, vs insulin resistant and control mice", "value": "increased"}, {"measurement": "insulin receptor signal transduction in the brain", "setting": "[6]; Tg2576 mice treated with D-pinitol", "value": "restoration"}, {"measurement": "β-secretase activity", "setting": "β-secretase", "value": "no effect; also recorded: does not influence"}, {"measurement": "α-secretase activity", "setting": "α-secretase", "value": "no effect; also recorded: does not influence"}, {"measurement": "rate of glucose disappearance", "setting": "[7]", "value": "increased"}, {"measurement": "blood glucose concentration", "setting": "[8]; normal rats given glucose", "value": "lower"}, {"measurement": "blood glucose concentration", "setting": "[8]; streptozotocin-induced diabetic rats", "value": "lower"}, {"measurement": "Aβ1-40 production", "setting": "γ-secretase [9]; [14]", "value": "dose-dependent inhibition"}, {"measurement": "Aβ1-42 production", "setting": "γ-secretase [9]; [14]", "value": "dose-dependent inhibition"}, {"measurement": "γ-secretase activity", "setting": "γ-secretase [9]; cultured H4 cells, read out as Aβ1-40 and Aβ1-42 in conditioned media", "value": "robust inhibitory effect"}, {"measurement": "toxicity and safety in man", "setting": "[10]", "value": "non-toxic and safe"}, {"measurement": "Aβ1-40 peptide in the same tissue culture", "setting": "γ-secretase [11]; CHO-APPswe cells", "value": "corresponding reduction"}, {"measurement": "formation of the ~7 kDa CTF-γ APP", "setting": "γ-secretase [11]; extracts from CHO-APPswe cells", "value": "blocked in a dose dependent fashion"}, {"measurement": "cell toxicity (LDH assay)", "setting": "[12]", "value": "no detectable cell toxicity"}, {"measurement": "GSK-3 activity in the brain", "setting": "GSK-3", "value": "restoration"}]}
{"smiles": "OC1C(O)C(O)C(O)C(O)C1O", "note": "(stereo not drawn) [d-chiro-inositol, reference compound]", "values": [{"measurement": "β-amyloid formation in the in vitro system", "setting": "γ-secretase [1]; in vitro amyloidosis system", "value": "no inhibitory effect"}]}
